ChEMBL document CHEMBL1155389, “Selectively nonselective kinase inhibition: striking the right balance” (J Med Chem, 2010)
One block for each compound: values may come before it.

Legend:
[1] = target: Tyrosine-protein kinase ABL1 (Homo sapiens, UniProt P00519)
Description: Inhibition of wild type Abl

[2] = target: Bcr/Abl fusion protein (Homo sapiens, UniProt P00519); assay type: protein assay
Description: Inhibition of wild type Bcr-Abl

[3] = target: Cyclin-dependent kinase 5 (Homo sapiens, UniProt Q00535); experiment: Inhibition of CDK5
[4] = Inhibition of GSK3
[5] = target: Dual specificity tyrosine-phosphorylation-regulated kinase 1A (Homo sapiens, UniProt Q13627); experiment: Inhibition of DYRK1A
[6] = target: Mast/stem cell growth factor receptor Kit (Homo sapiens, UniProt P10721)
[7] = target: Vascular endothelial growth factor receptor 2 (Homo sapiens, UniProt P35968)
[8] = target: T1, Dihydrofolate reductase (Homo sapiens, UniProt P00374); experiment: Inhibition of DHFR
T1 sequence (P00374 whole entry): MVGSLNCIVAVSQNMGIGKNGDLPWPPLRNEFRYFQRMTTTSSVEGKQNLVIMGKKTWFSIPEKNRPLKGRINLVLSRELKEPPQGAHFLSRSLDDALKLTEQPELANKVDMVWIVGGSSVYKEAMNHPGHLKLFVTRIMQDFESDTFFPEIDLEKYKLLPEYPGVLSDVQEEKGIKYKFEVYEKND

[9] = Inhibition of HDAC
[10] = Inhibition of p38
[11] = target: Mitogen-activated protein kinase 10 (Homo sapiens, UniProt P53779); experiment: Inhibition of JNK3
[12] = target: Cyclin-dependent kinase 1 (Homo sapiens, UniProt P06493); experiment: Inhibition of CDK1
[13] = target: Casein kinase I isoform alpha (Homo sapiens, UniProt P48729); experiment: Inhibition of CK1
[14] = target: Glycogen synthase kinase-3 beta (Homo sapiens, UniProt P49841); experiment: Inhibition of GSK3-beta
[15] = Inhibition of PDGFR
[16] = target: RAC-alpha serine/threonine-protein kinase (Homo sapiens, UniProt P31749)
[17] = target: Insulin-like growth factor 1 receptor (Homo sapiens, UniProt P08069)
[18] = target: Epidermal growth factor receptor (Homo sapiens, UniProt P00533)
[19] = target: Receptor tyrosine-protein kinase erbB-2 (Homo sapiens, UniProt P04626)
[20] = Oral bioavailability in mouse; assay type: ADME, organism-based; conditions: in vivo
[21] = target: Voltage-gated inwardly rectifying potassium channel KCNH2 (Homo sapiens, UniProt Q12809); experiment: Inhibition of ERG
[22] = target: Proto-oncogene tyrosine-protein kinase Src (Homo sapiens, UniProt P12931)
[23] = target: Nitric oxide synthase, inducible (Homo sapiens, UniProt P35228); experiment: Inhibition of iNOS

Sequence of Bcr/Abl fusion protein (P00519 whole entry, the tested form may be a part): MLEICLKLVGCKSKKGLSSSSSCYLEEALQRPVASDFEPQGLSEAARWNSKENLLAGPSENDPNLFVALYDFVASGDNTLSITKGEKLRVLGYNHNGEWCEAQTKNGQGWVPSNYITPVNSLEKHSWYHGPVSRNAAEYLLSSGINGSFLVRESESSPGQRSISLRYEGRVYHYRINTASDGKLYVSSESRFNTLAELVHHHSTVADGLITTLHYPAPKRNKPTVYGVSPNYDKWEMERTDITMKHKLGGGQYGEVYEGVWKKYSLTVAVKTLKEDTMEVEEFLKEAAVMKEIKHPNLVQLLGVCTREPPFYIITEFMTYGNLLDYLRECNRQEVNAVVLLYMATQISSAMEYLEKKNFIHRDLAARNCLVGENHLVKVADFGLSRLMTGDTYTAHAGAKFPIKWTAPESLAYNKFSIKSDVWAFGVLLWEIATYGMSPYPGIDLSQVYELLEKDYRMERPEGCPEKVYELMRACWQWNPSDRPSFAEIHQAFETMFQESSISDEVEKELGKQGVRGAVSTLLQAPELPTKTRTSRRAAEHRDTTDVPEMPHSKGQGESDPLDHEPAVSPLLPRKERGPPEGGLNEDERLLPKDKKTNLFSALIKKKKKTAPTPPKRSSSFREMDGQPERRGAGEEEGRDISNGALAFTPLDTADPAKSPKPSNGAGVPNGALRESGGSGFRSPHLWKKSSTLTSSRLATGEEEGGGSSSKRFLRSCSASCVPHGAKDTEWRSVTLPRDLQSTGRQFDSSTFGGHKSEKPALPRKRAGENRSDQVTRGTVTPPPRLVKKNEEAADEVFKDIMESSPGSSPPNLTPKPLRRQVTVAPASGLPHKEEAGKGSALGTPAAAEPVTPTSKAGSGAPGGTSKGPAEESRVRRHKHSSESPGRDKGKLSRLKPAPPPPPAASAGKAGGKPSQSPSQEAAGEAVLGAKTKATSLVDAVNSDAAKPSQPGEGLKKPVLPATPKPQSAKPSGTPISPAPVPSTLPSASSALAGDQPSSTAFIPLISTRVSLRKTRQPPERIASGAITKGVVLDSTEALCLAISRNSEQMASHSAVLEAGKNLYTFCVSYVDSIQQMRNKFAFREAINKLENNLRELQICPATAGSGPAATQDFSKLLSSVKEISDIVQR
Sequence of Bcr/Abl fusion protein (P11274 whole entry, further chain, the tested form may be a part): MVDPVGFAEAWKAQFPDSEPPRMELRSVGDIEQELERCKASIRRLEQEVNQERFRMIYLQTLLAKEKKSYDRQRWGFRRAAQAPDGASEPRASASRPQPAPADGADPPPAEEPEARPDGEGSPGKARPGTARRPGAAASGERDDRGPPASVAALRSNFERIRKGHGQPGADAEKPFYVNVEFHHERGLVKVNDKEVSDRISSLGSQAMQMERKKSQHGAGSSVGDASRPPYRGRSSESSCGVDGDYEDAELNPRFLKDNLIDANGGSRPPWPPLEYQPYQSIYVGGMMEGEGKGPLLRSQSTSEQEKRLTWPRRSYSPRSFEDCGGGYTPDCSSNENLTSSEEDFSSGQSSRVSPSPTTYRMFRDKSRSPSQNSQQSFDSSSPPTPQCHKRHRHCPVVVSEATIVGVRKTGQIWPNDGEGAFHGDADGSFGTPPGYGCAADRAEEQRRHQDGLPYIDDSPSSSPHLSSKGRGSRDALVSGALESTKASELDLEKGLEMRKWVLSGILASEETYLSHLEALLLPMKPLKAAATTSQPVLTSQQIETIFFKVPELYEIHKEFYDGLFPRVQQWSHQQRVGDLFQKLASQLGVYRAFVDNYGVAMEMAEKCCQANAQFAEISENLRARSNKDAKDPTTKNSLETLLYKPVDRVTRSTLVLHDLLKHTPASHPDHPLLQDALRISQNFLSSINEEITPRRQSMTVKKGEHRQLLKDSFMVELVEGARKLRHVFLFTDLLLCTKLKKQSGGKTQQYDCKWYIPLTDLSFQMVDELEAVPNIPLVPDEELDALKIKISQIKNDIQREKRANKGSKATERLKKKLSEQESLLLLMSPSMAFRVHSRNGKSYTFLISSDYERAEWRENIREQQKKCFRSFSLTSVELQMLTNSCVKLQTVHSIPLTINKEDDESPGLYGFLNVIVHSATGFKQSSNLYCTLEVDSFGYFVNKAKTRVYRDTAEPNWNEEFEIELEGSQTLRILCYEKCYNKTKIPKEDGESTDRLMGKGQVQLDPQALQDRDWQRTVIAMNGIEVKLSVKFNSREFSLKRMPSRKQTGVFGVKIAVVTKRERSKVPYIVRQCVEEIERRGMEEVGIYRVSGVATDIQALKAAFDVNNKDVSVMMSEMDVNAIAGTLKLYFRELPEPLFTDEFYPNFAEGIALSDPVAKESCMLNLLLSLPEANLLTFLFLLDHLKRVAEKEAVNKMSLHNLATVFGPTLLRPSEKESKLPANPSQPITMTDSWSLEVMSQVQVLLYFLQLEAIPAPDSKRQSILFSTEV
Sequence of Epidermal growth factor receptor (P00533 whole entry): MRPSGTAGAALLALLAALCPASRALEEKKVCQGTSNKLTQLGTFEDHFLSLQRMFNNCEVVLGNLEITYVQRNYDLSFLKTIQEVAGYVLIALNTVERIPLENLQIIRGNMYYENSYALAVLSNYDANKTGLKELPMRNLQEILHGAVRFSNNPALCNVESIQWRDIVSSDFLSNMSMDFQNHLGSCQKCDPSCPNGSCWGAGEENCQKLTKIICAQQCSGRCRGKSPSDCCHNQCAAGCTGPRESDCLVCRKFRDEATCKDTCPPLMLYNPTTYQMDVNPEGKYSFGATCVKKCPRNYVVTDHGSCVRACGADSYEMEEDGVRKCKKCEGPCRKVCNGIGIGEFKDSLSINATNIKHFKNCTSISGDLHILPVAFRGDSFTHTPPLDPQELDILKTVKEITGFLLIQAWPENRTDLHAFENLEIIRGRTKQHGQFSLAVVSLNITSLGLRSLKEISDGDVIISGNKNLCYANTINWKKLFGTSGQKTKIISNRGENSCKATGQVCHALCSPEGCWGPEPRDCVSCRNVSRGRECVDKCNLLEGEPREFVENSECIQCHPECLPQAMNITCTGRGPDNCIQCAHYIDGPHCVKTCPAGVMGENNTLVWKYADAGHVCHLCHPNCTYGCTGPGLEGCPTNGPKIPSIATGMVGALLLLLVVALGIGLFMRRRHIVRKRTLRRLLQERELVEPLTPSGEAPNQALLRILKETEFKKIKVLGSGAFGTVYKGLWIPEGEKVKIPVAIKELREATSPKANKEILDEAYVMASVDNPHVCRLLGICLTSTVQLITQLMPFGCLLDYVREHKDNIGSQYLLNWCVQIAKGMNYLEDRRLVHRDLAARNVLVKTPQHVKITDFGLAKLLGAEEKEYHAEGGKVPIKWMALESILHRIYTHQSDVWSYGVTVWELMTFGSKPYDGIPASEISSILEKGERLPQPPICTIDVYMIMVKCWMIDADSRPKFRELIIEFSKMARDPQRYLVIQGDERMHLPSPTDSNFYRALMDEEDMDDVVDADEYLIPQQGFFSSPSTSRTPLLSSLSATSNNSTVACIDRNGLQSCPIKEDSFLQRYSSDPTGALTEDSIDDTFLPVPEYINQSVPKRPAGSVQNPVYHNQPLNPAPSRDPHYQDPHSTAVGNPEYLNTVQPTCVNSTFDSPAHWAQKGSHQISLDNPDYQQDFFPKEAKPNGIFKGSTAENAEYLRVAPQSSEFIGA
Sequence of Insulin-like growth factor 1 receptor (P08069 31-736 limits assumed): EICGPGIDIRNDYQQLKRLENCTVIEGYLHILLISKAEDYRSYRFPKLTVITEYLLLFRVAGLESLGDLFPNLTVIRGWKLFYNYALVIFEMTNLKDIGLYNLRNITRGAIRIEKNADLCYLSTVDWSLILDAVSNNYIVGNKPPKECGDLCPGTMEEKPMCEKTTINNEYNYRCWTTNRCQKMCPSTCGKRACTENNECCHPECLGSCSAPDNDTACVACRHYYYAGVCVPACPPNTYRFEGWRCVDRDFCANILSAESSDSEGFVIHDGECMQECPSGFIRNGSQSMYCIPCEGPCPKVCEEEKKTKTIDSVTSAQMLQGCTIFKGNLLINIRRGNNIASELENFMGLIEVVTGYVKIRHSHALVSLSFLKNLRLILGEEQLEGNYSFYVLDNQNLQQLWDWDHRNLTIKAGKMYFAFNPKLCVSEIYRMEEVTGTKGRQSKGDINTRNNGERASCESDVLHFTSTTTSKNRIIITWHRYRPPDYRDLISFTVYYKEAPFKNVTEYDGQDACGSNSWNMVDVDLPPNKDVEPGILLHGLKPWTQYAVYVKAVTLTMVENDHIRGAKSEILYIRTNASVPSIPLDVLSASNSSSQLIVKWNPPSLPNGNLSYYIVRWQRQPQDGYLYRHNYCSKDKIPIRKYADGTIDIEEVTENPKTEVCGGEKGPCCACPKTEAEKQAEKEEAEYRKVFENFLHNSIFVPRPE
Sequence of Insulin-like growth factor 1 receptor (P08069 741-1367 limits assumed): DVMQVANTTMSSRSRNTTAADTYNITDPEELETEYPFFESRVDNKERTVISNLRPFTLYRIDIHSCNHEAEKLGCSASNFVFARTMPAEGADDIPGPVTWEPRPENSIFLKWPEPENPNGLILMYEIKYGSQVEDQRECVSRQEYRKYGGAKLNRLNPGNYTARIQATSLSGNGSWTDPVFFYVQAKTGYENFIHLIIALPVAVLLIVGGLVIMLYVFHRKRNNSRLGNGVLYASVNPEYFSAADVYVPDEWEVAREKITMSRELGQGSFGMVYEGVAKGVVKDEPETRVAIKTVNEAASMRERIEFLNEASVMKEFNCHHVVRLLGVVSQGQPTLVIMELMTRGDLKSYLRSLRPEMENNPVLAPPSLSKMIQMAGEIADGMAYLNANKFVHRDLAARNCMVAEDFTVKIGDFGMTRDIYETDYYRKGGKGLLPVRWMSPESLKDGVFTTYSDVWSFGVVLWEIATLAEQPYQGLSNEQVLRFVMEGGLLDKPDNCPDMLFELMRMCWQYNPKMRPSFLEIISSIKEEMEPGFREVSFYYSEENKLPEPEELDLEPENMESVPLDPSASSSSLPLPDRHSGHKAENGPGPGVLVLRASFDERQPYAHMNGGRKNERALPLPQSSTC
Sequence of Tyrosine-protein kinase ABL1 (P00519 whole entry, the tested form may be a part): as the sequence (P00519 whole entry, the tested form may be a part) above

Compound: Cc1cn(-c2cc(NC(=O)c3ccc(C)c(/C=C/N4CNc5c(NC6CC6)ncnc54)c3)cc(C(F)(F)F)c2)cn1
IC50 [1]: 0.025 µM
IC50 [2]: 0.008 µM

IC50 [3]: 11 µM
IC50 [4]: 15 µM
IC50 [5]: 0.41 µM
Compound: N#Cc1c(N)cc2[nH]nc(N)c2c1-c1ccccc1

IC50 [6]: 0.043 µM
IC50 [2]: 11 µM
Compound: Cc1ccc(-c2ccnc(Nc3cc(NC(=O)c4ccc(CN5CCN(C)CC5)cc4)ccc3C)n2)cn1

IC50 [7]: 2 µM
IC50 [8]: 10 µM
Compound: C/C(=C/c1coc2nc(N)nc(N)c12)c1cccc2ccccc12

IC50 [9]: 0.08 µM
IC50 [2]: 2.7 µM
Compound: Cc1ccc(NC(=O)c2ccc(/C=C/C(=O)NO)cc2)cc1Nc1nc(-c2cccnc2)cs1

IC50 [10]: 0.002 µM
IC50 [11]: 0.026 µM
Compound: c1ccc(-c2noc(CN3CCCCC3)c2-c2ccnc(NC3CCCCC3)n2)cc1

IC50 [12]: 0.22 µM
IC50 [13]: 0.014 µM
IC50 [14]: 4.1 µM
Compound: CCC(CO)Nc1nc(Nc2cccc(-c3ccccn3)c2)c2ncn(C(C)C)c2n1 (stereo unspecified)

IC50 [15]: 0.002 µM
Compound: Nc1ncnc2c1c(-c1cnc3[nH]ccc3c1)nn2C1CCCC1

Compound: Cn1nnnc1-c1cnc(-c2ccc(CN3CCC(n4c(=O)[nH]c5ccccc54)CC3)cc2)c(-c2ccccc2)c1
IC50 [16]: 0.273 µM

IC50 [17]: 0.081 µM
IC50 [18]: 0.058 µM
IC50 [19]: 0.054 µM
Compound: COCCCN1CCC([C@H]2CC[C@H](n3nc(-c4ccc5nc(Cc6ccccc6Cl)[nH]c5c4)c4c(N)ncnc43)CC2)CC1

Compound: COc1ccccc1Cc1nc2ccc(-c3nn([C@H]4CC[C@H](C5CCN(C)CC5)CC4)c4ncnc(N)c34)cc2[nH]1
bioavailability [20]: 12%
IC50 [17]: 0.081 µM
IC50 [18]: 0.058 µM

Compound: c1ccc(-c2cc3c(ccn4cnnc34)nc2-c2ccc(CN3CCC(c4nnc(-c5ccccn5)[nH]4)CC3)cc2)cc1
IC50 [21]: > 10 µM

IC50 [22]: 0.015 µM
IC50 [23]: 313 µM
Compound: Cc1cc2c(Nc3ccc4nc(N)sc4c3)c(C#N)cnc2cc1OCCN1CCCCC1

IC50 [9]: 0.0044 µM
Compound: C#Cc1cccc(Nc2ncnc3cc(OC)c(OCCCCCCC(=O)NO)cc23)c1 [CUDC-101]

IC50 [9]: > 0.1 µM
IC50 [15]: 0.039 µM
Compound: Cc1ccc(NC(=O)c2ccc(CN3CCN(C)CC3)cc2)cc1Nc1nccc(-c2cccnc2)n1 [IMATINIB]

IC50 [15]: 0.025 µM
Compound: Cc1cn(-c2cc(NC(=O)c3ccc(C)c(Nc4nccc(-c5cccnc5)n4)c3)cc(C(F)(F)F)c2)cn1 [NILOTINIB]
